Where only a bound is given, the exact number is not on record here.

IDH1 R132H, sequence (O75874 whole entry R132H): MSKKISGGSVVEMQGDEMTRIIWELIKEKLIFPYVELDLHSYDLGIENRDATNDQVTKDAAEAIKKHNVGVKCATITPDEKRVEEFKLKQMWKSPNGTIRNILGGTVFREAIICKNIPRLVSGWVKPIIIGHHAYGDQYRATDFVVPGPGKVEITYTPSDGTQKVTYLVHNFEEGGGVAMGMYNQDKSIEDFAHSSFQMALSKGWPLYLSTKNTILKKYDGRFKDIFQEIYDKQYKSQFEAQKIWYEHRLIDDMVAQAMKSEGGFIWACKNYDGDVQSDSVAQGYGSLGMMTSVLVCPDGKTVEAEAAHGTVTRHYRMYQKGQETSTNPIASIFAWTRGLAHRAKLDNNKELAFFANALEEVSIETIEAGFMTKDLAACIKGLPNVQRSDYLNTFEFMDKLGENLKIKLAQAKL

This assay addresses IDH1 R132H (Homo sapiens (Human), UniProt O75874, R132H). Put plainly: Assays for IDH1 R132H Inhibitors (NADPH/aKG, resazurin detection). In kind it is biochemical. The note with it: IDH1 R132H enzyme, Table 2; read-out: IDHR132H Activity. In a few lines:
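Substrate mix held 8 uM NADPH plus 2 mM aKG; buffer was 20 mM Tris pH 7.5 with 150 mM NaCl, 10 mM MgCl2, 0.03% BSA. After 50 min room-temperature reaction, NADPH remaining was detected with 30 μM resazurin mix over 5 min.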
A general note: Resazurin is reduced to fluorescent resorufin, in cell work by metabolically active cells.
For the molecule `CC(C)c1nc(N2CCN(C(=O)Cc3cc(F)cc(F)c3)[C@H](C)C2)c(C#N)c2c1COC(C)(C)C2` [Compound 159, (R)-6-(4-(2-(3,5-difluorophenyl)acetyl)-3-methylpiperazin-1-yl)-8-isopropyl-3,3-dimethyl-3,4-dihydro-1H-pyrano[3,4-c]pyridine-5-carbonitrile], the IC50 was 1000 to 10000 nM. The value for `CC(C)c1nc(N2CCN(C(=O)c3ccoc3)[C@@H](c3ccccc3)C2)c(C#N)c2c1COC(C)(C)C2` [Compound 257, (S)-6-(4-(furan-3-carbonyl)-3-phenylpiperazin-1-yl)-8-isopropyl-3,3-dimethyl-3,4-dihydro-1H-pyrano[3,4-c]pyridine-5-carbonitrile] was 1000 to 10000 nM. The value for `CC(C)[C@@H]1CN(c2nc(C3CCC3)c3c(c2C#N)CC(C)(C)OC3)CCN1C(=O)c1ccoc1` [Compound 288, (R)-8-cyclobutyl-6-(4-(furan-3-carbonyl)-3-isopropylpiperazin-1-yl)-3,3-dimethyl-3,4-dihydro-1H-pyrano[3,4-c]pyridine-5-carbonitrile] was under 500 nM; that for `Cc1occc1C(=O)N1CCN(c2nc(C(C)C)c3c(c2C#N)CC(C)(C)OC3)C(c2ccccc2)C1` (stereo not drawn) [Compound 179, 8-isopropyl-3,3-dimethyl-6-(4-(2-methylfuran-3-carbonyl)-2-phenylpiperazin-1-yl)-3,4-dihydro-1H-pyrano[3,4-c]pyridine-5-carbonitrile] was 1000 to 10000 nM. The value for `CC(C)c1nc(N2CCN(C(=O)Cc3cccnc3)[C@H](C(C)C)C2)c(C#N)c2c1COC(C)(C)C2` [Compound 250, (R)-8-isopropyl-6-(3-isopropyl-4-(2-(pyridin-3-yl)acetyl)piperazin-1-yl)-3,3-dimethyl-3,4-dihydro-1H-pyrano[3,4-c]pyridine-5-carbonitrile] was 500 to 1000 nM.

In the case of `Cc1cc(C(=O)N2CCN(c3nc(C4CCCCC4)c4c(c3C#N)CCOC4)CC2)c(C)o1` [Compound 121, 8-cyclohexyl-6-(4-(2,5-dimethylfuran-3-carbonyl)piperazin-1-yl)-3,4-dihydro-1H-pyrano[3,4-c]pyridine-5-carbonitrile], the IC50 is 1000 to 10000 nM. For `COCCC(=O)N1CCN(c2nc(C(C)C)c3c(c2C#N)CC(C)(C)OC3)C[C@H]1C` [Compound 268, (R)-8-isopropyl-6-(4-(3-methoxypropanoyl)-3-methylpiperazin-1-yl)-3,3-dimethyl-3,4-dihydro-1H-pyrano[3,4-c]pyridine-5-carbonitrile], the IC50 was in the range of 500 to 1000 nM. The value for `CC[C@@H]1CN(c2nc(C3CC3)c3c(c2C#N)CC(C)(C)OC3)CCN1C(=O)Cc1ccccn1` [Compound 290] was 1000 to 10000 nM.

Take `Cc1ccoc1C(=O)N1CCN(c2nc(C3CC3)c3c(c2C#N)CC(C)(C)OC3)C[C@H]1C(C)C` [Compound 193]: the IC50 lay in the range of 1000 to 10000 nM. In the case of `CC(C)c1nc(N2CCN(C(=O)c3cccnc3)[C@H](C)C2)c(C#N)c2c1COC(C)(C)C2` [Compound 249, (R)-8-isopropyl-3,3-dimethyl-6-(3-methyl-4-nicotinoylpiperazin-1-yl)-3,4-dihydro-1H-pyrano[3,4-c]pyridine-5-carbonitrile] it was 1000 to 10000 nM; in that of `COc1ccccc1CC(=O)N1CCN(c2nc(C3CCCCC3)c3c(c2C#N)CCOC3)C[C@H]1C` [Compound 224, (R)-8-cyclohexyl-6-(4-(2-(2-methoxyphenyl)acetyl)-3-methylpiperazin-1-yl)-3,4-dihydro-1H-pyrano[3,4-c]pyridine-5-carbonitrile], 1000 to 10000 nM; in that of `CC[C@@H]1CN(c2nc(C3CC3)c3c(c2C#N)CC(C)(C)OC3)CCN1C(=O)Cc1cccnc1` [Compound 294], 500 to 1000 nM.

Consider `CC(C)c1nc(N2CCN(C(=O)c3ccco3)C(C)C2)c(C#N)c2c1CCCC2` (stereo not drawn) [Compound 125, 3-(4-(furan-2-carbonyl)-3-methylpiperazin-1-yl)-1-isopropyl-5,6,7,8-tetrahydroisoquinoline-4-carbonitrile], for which the IC50 was in the range of 1000 to 10000 nM. The value for `COCC(=O)N1CCN(c2nc(C3CCCCC3)c3c(c2C#N)CCOC3)C[C@H]1C` [Compound 341] was 1000 to 10000 nM; that for `CCC1CN(c2nc(C3CCCCC3)c3c(c2C#N)CCOC3)CCN1C(=O)c1ccoc1` (stereo not drawn) [Compound 175, 8-cyclohexyl-6-(3-ethyl-4-(furan-3-carbonyl)piperazin-1-yl)-3,4-dihydro-1H-pyrano[3,4-c]pyridine-5-carbonitrile] was 1000 to 10000 nM. In the case of `C[C@@H]1CN(c2nc(C3CCCCC3)c3c(c2C#N)CC(C)(C)OC3)CCN1C(=O)Cc1ccccc1` [Compound 152, (R)-8-cyclohexyl-3,3-dimethyl-6-(3-methyl-4-(2-phenylacetyl)piperazin-1-yl)-3,4-dihydro-1H-pyrano[3,4-c]pyridine-5-carbonitrile] it was 1000 to 10000 nM; in that of `CC[C@@H]1CN(c2nc(C3CC3)c3c(c2C#N)CC(C)(C)OC3)CCN1C(=O)CCOC` [Compound 297, (R)-8-cyclopropyl-6-(3-ethyl-4-(3-methoxypropanoyl)piperazin-1-yl)-3,3-dimethyl-3,4-dihydro-1H-pyrano[3,4-c]pyridine-5-carbonitrile], under 500 nM; in that of `COc1ccccc1CC(=O)N1CCN(c2nc(C(C)C)c3c(c2C#N)CC(C)(C)OC3)C[C@H]1C(C)C` [Compound 216, (R)-8-isopropyl-6-(3-isopropyl-4-(2-(2-methoxyphenyl)acetyl)piperazin-1-yl)-3,3-dimethyl-3,4-dihydro-1H-pyrano[3,4-c]pyridine-5-carbonitrile], 1000 to 10000 nM. In the case of `CC(C)c1nc(N2CCN(C(=O)c3ccoc3)[C@H](C(C)C)C2)c(C#N)c2c1COC(C)(C)C2` [Compound 165, (R)-6-(4-(furan-3-carbonyl)-3-isopropylpiperazin-1-yl)-8-isopropyl-3,3-dimethyl-3,4-dihydro-1H-pyrano[3,4-c]pyridine-5-carbonitrile] it was under 500 nM; in that of `Cc1ccn(CC(=O)N2CCN(c3nc(C4CC4)c4c(c3C#N)CC(C)(C)OC4)C[C@H]2C(C)C)n1` [Compound 400, (R)-8-cyclopropyl-6-(3-isopropyl-4-(2-(3-methyl-1H-pyrazol-1-yl)acetyl)piperazin-1-yl)-3,3-dimethyl-3,4-dihydro-1H-pyrano[3,4-c]pyridine-5-carbonitrile], 1000 to 10000 nM; in that of `Cc1ccoc1C(=O)N1CCN(c2nc(C3CCCCC3)c3c(c2C#N)CCOC3)C[C@H]1C` [Compound 186, (R)-8-cyclohexyl-6-(3-methyl-4-(3-methylfuran-2-carbonyl)piperazin-1-yl)-3,4-dihydro-1H-pyrano[3,4-c]pyridine-5-carbonitrile], 1000 to 10000 nM. As for `CC1(C)Cc2c(C#N)c(N3CCN(C(=O)c4ccco4)C(C)(C)C3)nc(C3CC3)c2CO1` [Compound 319], the IC50 is 1000 to 10000 nM. Take `CCOC(=O)C1CN(c2nc(C3CCCCC3)c3c(c2C#N)CCOC3)CCN1C(=O)CCSC` (stereo not drawn) [Compound 313, ethyl 4-(5-cyano-8-cyclohexyl-3,4-dihydro-1H-pyrano[3,4-c]pyridin-6-yl)-1-(3-(methylthio)-propanoyl)piperazine-2-carboxylate]: the IC50 was 1000 to 10000 nM. In the case of `Cc1occc1C(=O)N1CCN(c2nc(C3CCCCC3)c3c(c2C#N)CCOC3)C[C@H]1C` [Compound 184, (R)-8-cyclohexyl-6-(3-methyl-4-(2-methylfuran-3-carbonyl)piperazin-1-yl)-3,4-dihydro-1H-pyrano[3,4-c]pyridine-5-carbonitrile] it was 1000 to 10000 nM.

These data come from patent US9662327B2 (AGIOS PHARMACEUTICALS, INC, priority 2011, dated 2017).
